This note sets out measurements from patent publication US10035800B2 (AbbVie Inc., priority 2013, dated 2018).

The target in one assay is T1, BRD4 (BDI_K57-E168) (Homo sapiens, UniProt O60885).
T1 construct: BD1: amino acids K57-E168; made in house
Put plainly: TR-FRET bromodomain binding assay, first bromodomain of BRD4. To be noted: 100 nM probe. The method, boiled down: (§1)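 His-tagged BRD4 bromodomain (8 nM) was incubated with Eu-anti-His antibody (1 nM) and an Alexa647-labelled BET-inhibitor probe (100 nM for BDI, 30 nM for BDII) in pH 6.0 phosphate buffer with 2% DMSO for 1 h at room temperature. TR-FRET ratio was read, IC50 fitted by 4-parameter logistic, then converted to Ki.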
A general note: Time-resolved FRET reads energy transfer from a long-lived donor to a nearby acceptor.

A further assay concerns the target T2, BRD4 (BDII_E352-M457) (Homo sapiens, UniProt O60885).
T2 construct: protocol; made in house
Put plainly: TR-FRET bromodomain binding assay, second bromodomain of BRD4. As to conditions: 30 nM probe. The procedure, abridged:
as §1

Assay [1] has as its system breast cancer cell line MX-1. Put plainly: MX-1 cell line proliferation assay. Type of assay: cell-based. To be noted: MX-1 cells, 3-day proliferation assay, Cell Titer Glo; read-out: Cellular proliferation: EC50. The protocol: MX-1 Cell Line Proliferation Assay
The impact of compounds of the Examples on cancer cell proliferation was determined using the breast cancer cell line MX-1 (ATCC) in a 3-day proliferation assay and the data are reported in Table 1. MX-1 cells were maintained in RPMI 1640 medium (Sigma) supplemented with 10% FBS at 37 C.° and an atmosphere of 5% CO2. For compound testing, MX-1 cells were plated in 96-well black bottom plates at a density of 5000 cells/well in 90 μL of culture media and incubated at 37° overnight to allow cell adhesion and spreading. Compound dilution series were prepared in DMSO via a 3-fold serial dilution from 3 mM to 0.1 μM. The DMSO dilution series were then diluted 1:100 in phosphate buffered saline, and 10 μL of the resulted solution were added to the appropriate wells of the MX-1 cell plate. The final compound concentrations in the wells were 3, 1, 0.3, 0.1, 0.03, 0.01, 0.003, 0.001, 0.0003, and 0.0001 μM or 1, 0.3, 0.1, 0.03, 0.01, 0.003, 0.001, 0.0003, 0.0001, and 0.00003 μM.
Luminescence readings from the Cell Titer Glo assay were normalized to the DMSO treated cells and analyzed using the GraphPad Prism software with sigmoidal curve fitting to obtain EC50s. The minimum significant ratio (MSR) was determined to evaluate assay reproducibility (Eastwood et al., (2006) J Biomol Screen, 11: 253-261). The overall MSR was determined to be 2.1 and a moving MSR (last six run MSR overtime) has been <2.
A general note: Cellular ATP, detected with luciferase, serves as a proxy for viable cell number.

Setting [2] is: TR-FRET assay protocol G (compound 0.92 μM-15 pM).
[3] abbreviates: TR-FRET assay protocol E (compound 9.19 μM-150 pM).

Consider “1-((4-(2,4-difluorophenyl)-10-methyl-7-((methylsulfonyl)methyl)-11-oxo-3,4,10,11-tetrahydro-1H-1,4,10-triazadibenzo[cd,f]azulen-3-yl)methyl)-3-phenylurea [Example 138]”, for which the Ki at BRD4 (BDI_K57-E168) (setting [2]) was determined as 22.5 nM; at BRD4 (BDII_E352-M457) (setting [2]) it was 1.94 nM. Further, the EC50 in assay [1] is 256 nM.
For the compound “3-(4-(2,4-difluorophenyl)-10-methyl-7-((methylsulfonyl)methyl)-11-oxo-3,4,10,11-tetrahydro-1H-1,4,10-triazadibenzo[cd,f]azulen-3-yl)propanamide [Example 99]”, the inhibitory constant (Ki) at BRD4 (BDI_K57-E168) (setting [2]) was found to be 15.5 nM; on BRD4 (BDII_E352-M457) (setting [2]), 1.66 nM. In addition, in assay [1], the EC50 came to 165 nM.
For “4-(1H-indazol-5-yl)-10-methyl-7-((methylsulfonyl)methyl)-3,4-dihydro-1H-1,4,10-triazadibenzo[cd,f]azulen-11(10H)-one [Example 246]”, the inhibitory constant (Ki) on BRD4 (BDI_K57-E168) (setting [2]) was determined as 4.32 nM; at BRD4 (BDII_E352-M457) (setting [2]), 3.6 nM. For the same compound, the EC50 in assay [1] was determined as 11.7 nM.
Taken in the same sequence, the figures for “4-(2,4-difluorophenyl)-10-methyl-7-((methylsulfonyl)methyl)-11-oxo-3,4,10,11-tetrahydro-1H-1,4,10-triazadibenzo[cd,f]azulene-3-carboxamide [Example 141]” were 20.8 nM, 10.9 nM and 319 nM.
Turning to “4-(2-(3-(dimethylamino)propoxy)benzyl)-10-methyl-7-((methylsulfonyl)methyl)-3,4-dihydro-1H-1,4,10-triazadibenzo[cd,f]azulen-11(10H)-one [Example 260]”, the Ki is 7.26 nM on BRD4 (BDI_K57-E168) (setting [2]) and 3.4 nM on BRD4 (BDII_E352-M457) (setting [2]). In addition, the EC50 in assay [1] was determined as 219 nM.
Taken in the same sequence, the figures for “4-(2-fluoropyridin-4-yl)-10-methyl-7-((methylsulfonyl)methyl)-3,4-dihydro-1H-1,4,10-triazadibenzo[cd,f]azulen-11(10H)-one [Example 254]” were 1.12 nM, 0.71 nM and 3.9 nM.
“4-(4-chlorophenyl)-10-methyl-2-(1-methyl-1H-pyrazol-4-yl)-7-(methylsulfonyl)-3,4-dihydro-1H-1,4,10-triazadibenzo[cd,f]azulen-11(10H)-one [Example 271]”: the Ki at BRD4 (BDI_K57-E168) (setting [2]) was 3.91 nM; at BRD4 (BDII_E352-M457) (setting [2]) it was 1.64 nM. Further, the EC50 in assay [1] is 85.2 nM.
“4-(6-methoxypyridin-2-yl)-10-methyl-7-((methylsulfonyl)methyl)-3,4-dihydro-1H-1,4,10-triazadibenzo[cd,f]azulen-11(10H)-one [Example 256]”: the Ki on BRD4 (BDI_K57-E168) (setting [2]) stood at 0.59 nM; at BRD4 (BDII_E352-M457) (setting [2]), 0.54 nM. In addition, in assay [1], the EC50 was found to be 0.35 nM.
Turning to “4-([1,1′-biphenyl]-4-carbonyl)-10-methyl-7-((methylsulfonyl)methyl)-3,4-dihydro-1H-1,4,10-triazadibenzo[cd,f]azulen-11(10H)-one [Example 102]”, the inhibition constant (Ki) came out at 9.41 nM on BRD4 (BDI_K57-E168) (setting [2]) and 26.9 nM at BRD4 (BDII_E352-M457) (setting [2]). The EC50 in assay [1] was 151 nM.
Take “4-(cyclopropylmethyl)-7-(isopropylsulfonyl)-10-methyl-3,4-dihydro-1H-1,4,10-triazadibenzo[cd,f]azulen-11(10H)-one [Example 1]”: the figures for the inhibition constant Ki on BRD4 (BDI_K57-E168) (setting [3]) and at BRD4 (BDII_E352-M457) (setting [3]) were 32.7 nM and 10.5 nM, respectively. Besides, the EC50 in assay [1] is 27.2 nM.
Turning to “10-methyl-4-(pyridin-2-yl)-7-(pyrrolidin-1-ylsulfonyl)-3,4-dihydro-1H-1,4,5,10-tetraazadibenzo[cd,f]azulen-11(10H)-one [Example 266]”, the figures for the Ki on BRD4 (BDI_K57-E168) (setting [2]) and on BRD4 (BDII_E352-M457) (setting [2]) were 17.8 nM and 8.15 nM, respectively. Moreover, the EC50 in assay [1] stood at 42.7 nM.
Turning to “10-methyl-7-((methylsulfonyl)methyl)-4-(piperidin-4-ylmethyl)-3,4-dihydro-1H-1,4,10-triazadibenzo[cd,f]azulen-11(10H)-one [Example 37]”, the Ki was 3.36 nM at BRD4 (BDI_K57-E168) (setting [2]) and 2.4 nM on BRD4 (BDII_E352-M457) (setting [2]). In assay [1], the EC50 was over 1000 nM.
Taken in the same sequence, the figures for “10-methyl-7-((methylsulfonyl)methyl)-4-(pyrimidin-4-yl)-3,4-dihydro-1H-1,4,10-triazadibenzo[cd,f]azulen-11(10H)-one [Example 259]” were 3.4 nM, 3.05 nM and 19 nM.
For `Cn1cc2c3c(c[nH]c3c1=O)CN(C1CCC(N)CC1)c1ccc(CS(C)(=O)=O)cc1-2` (mixture of isomers) [Example 212, 4-(4-aminocyclohexyl)-10-methyl-7-((methylsulfonyl)methyl)-3,4-dihydro-1H-1,4,10-triazadibenzo[cd,f]azulen-11(10H)-one], in that order: 2.39 nM, 5 nM and 155 nM.
On to `CC(=O)NC1CCC(N2Cc3c[nH]c4c(=O)n(C)cc(c34)-c3cc(CS(C)(=O)=O)ccc32)CC1` (mixture of isomers) [Example 243, N-(4-(10-methyl-7-((methylsulfonyl)methyl)-11-oxo-10,11-dihydro-1H-1,4,10-triazadibenzo[cd,f]azulen-4(3H)-yl)cyclohexyl)acetamide], for which the results for the Ki on BRD4 (BDI_K57-E168) (setting [2]) and on BRD4 (BDII_E352-M457) (setting [2]) were 1.85 nM and 3.47 nM, respectively. Also, in assay [1], the EC50 stood at 153 nM.
In the case of `CC(C)CC1Nc2ccc(CS(C)(=O)=O)cc2-c2cn(C)c(=O)c3[nH]cc1c23` (racemic) [Example 19, 3-isobutyl-10-methyl-7-((methylsulfonyl)methyl)-3,4-dihydro-1H-1,4,10-triazadibenzo[cd,f]azulen-11(10H)-one], the Ki was found to be 246 nM on BRD4 (BDI_K57-E168) (setting [3]) and 43.8 nM on BRD4 (BDII_E352-M457) (setting [3]). In addition, the EC50 in assay [1] was found to be 370 nM.
Taken in the same sequence, the figures for `Cn1cc2c3c(c[nH]c3c1=O)C(/C=C/c1ccc(F)cc1)Nc1ccc(CS(C)(=O)=O)cc1-2` (racemic) [Example 20, (E)-3-(4-fluorostyryl)-10-methyl-7-((methylsulfonyl)methyl)-3,4-dihydro-1H-1,4,10-triazadibenzo[cd,f]azulen-11(10H)-one] were 158 nM, 24.5 nM and 544 nM.
For `Cn1cc2c3c(c[nH]c3c1=O)CN(CC1CCN(C(=O)OC(C)(C)C)C1)c1ccc(CS(C)(=O)=O)cc1-2` (racemic) [Example 25, tert-butyl 3-((10-methyl-7-((methylsulfonyl)methyl)-11-oxo-10,11-dihydro-1H-1,4,10-triazadibenzo[cd,f]azulen-4(3H)-yl)methyl)pyrrolidine-1-carboxylate], in that order: 1.74 nM, 0.847 nM and 8.7 nM.
For the compound `CCOC(=O)C1c2c[nH]c3c(=O)n(C)cc(c23)-c2cc(CS(C)(=O)=O)ccc2N1c1ccc(F)cc1` (racemic) [Example 34, ethyl 4-(4-fluorophenyl)-10-methyl-7-((methylsulfonyl)methyl)-11-oxo-3,4,10,11-tetrahydro-1H-1,4,10-triazadibenzo[cd,f]azulene-3-carboxylate], the Ki amounted to 2.45 nM on BRD4 (BDI_K57-E168) (setting [2]) and 3.89 nM on BRD4 (BDII_E352-M457) (setting [2]). In addition, the EC50 in assay [1] was 14.7 nM.
As to “(R)—N-ethyl-7-(ethylsulfonyl)-10-methyl-11-oxo-4-(1-phenylpropyl)-3,4,10,11-tetrahydro-1H-1,4,10-triazadibenzo[cd,f]azulene-2-carboxamide [Example 272]”, the figures for the Ki on BRD4 (BDI_K57-E168) (setting [2]) and at BRD4 (BDII_E352-M457) (setting [2]) were 58.9 nM and 6.35 nM, respectively.
With “N-(2-chloroethyl)-10-methyl-7-((methylsulfonyl)methyl)-11-oxo-10,11-dihydro-1H-1,4,10-triazadibenzo[cd,f]azulene-4(3H)-carboxamide [Example 66]”, the Ki at BRD4 (BDI_K57-E168) (setting [2]) was over 238 nM; on BRD4 (BDII_E352-M457) (setting [2]), over 408 nM.
Regarding “N-(3-methoxypropyl)-10-methyl-7-((methylsulfonyl)methyl)-11-oxo-10,11-dihydro-1H-1,4,10-triazadibenzo[cd,f]azulene-4(3H)-carboxamide [Example 73]”, the results for the Ki at BRD4 (BDI_K57-E168) (setting [2]) and on BRD4 (BDII_E352-M457) (setting [2]) were 16.5 nM and 19.4 nM, respectively.
For “tert-butyl 4-(3-(4-(2,4-difluorophenyl)-10-methyl-7-((methylsulfonyl)methyl)-11-oxo-3,4,10,11-tetrahydro-1H-1,4,10-triazadibenzo[cd,f]azulen-3-yl)propanamido)piperidine-1-carboxylate [Example 126]”, in that order: 53.6 nM and 80 nM.

The Ki is a dissociation constant, usually derived from enzyme kinetics or from competition with a known ligand. High values mean weaker binding, low ones tighter binding.
